Reference: patent publication US5466698A, “Substituted tetrahydrophyridines and hydroxypiperidines as central nervous system agents” (Warner-Lambert Company, priority 1993, dated 1995)
Read-outs that look alike come from different tables or passages of the source.

Tests used:
[1] = system: Brain Dopamine Synthesis in Rats; assay: % Reversal of Brain Dopamine Synthesis in Rats; assay type: in vivo; conditions: Rattus norvegicus, IP
[2] = molecular target: [^3 H]Spiroperidol Binding (Rattus norvegicus, UniProt P61169); assay: Inhibition of [^3 H]Spiroperidol Binding, receptor assay
Sequence of [^3 H]Spiroperidol Binding (P61169 whole entry): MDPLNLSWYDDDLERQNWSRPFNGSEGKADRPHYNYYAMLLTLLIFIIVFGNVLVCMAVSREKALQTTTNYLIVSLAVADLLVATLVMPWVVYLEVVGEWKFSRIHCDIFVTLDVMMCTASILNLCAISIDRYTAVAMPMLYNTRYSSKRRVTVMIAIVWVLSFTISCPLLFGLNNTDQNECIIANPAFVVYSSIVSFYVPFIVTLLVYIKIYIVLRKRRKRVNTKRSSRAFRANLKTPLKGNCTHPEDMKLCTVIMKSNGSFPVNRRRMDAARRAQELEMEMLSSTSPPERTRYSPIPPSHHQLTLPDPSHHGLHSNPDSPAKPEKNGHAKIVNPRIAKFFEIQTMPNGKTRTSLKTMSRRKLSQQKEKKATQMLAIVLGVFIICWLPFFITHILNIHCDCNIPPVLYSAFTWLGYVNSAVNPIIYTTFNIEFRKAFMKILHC

[3] = system: Locomotor Activity in Mice; assay: Inhibition of Locomotor Activity in Mice; assay type: in vivo; conditions: Mus musculus, IP

Row | Structure (SMILES) | inhibition in vivo at 10 mg/kg [1] | IC50 [2] | ED50 [3] | IC50 ([2]; read-out: Inhibition of [^3 H]Spiroperidol Binding IC50, [^3 H]spiroperidol radioligand)
1 | C(#Cc1cnc2ccccc2c1)CCN1CC=C(c2ccccc2)CC1 [Example 1, 3-[4-(3,6-Dihydro-4-phenyl-1(2H)-pyridinyl)-1-butynyl]quinoline] | 28% | 41 nM | – | –
2 | C(#Cc1cncc2ccccc12)CCN1CC=C(c2ccccc2)CC1 [Example 2, 4-[4-(3,6-Dihydro-4-phenyl-1(2H)-pyridinyl)-1-butynyl]isoquinoline] | 32% | 101 nM | 2.1 mg/kg | –
3 | C(#Cc1cccnc1)CCN1CC=C(c2cccs2)CC1 [Example 3, 3-[4-[3,6-Dihydro-4-(2-thienyl)-1(2H)-pyridinyl]-1-butynyl]pyridine] | 53% | 354 nM | 0.54 mg/kg | –
4 | C(#Cc1cccnc1)CCN1CC=C(c2ccccc2)CC1 [Example 4, 3-[4-(3,6-Dihydro-4-phenyl-1(2H)-pyridinyl)-1-butynyl]pyridine] | 79% | 50 nM | 0.07 mg/kg | –
5 | C(#Cc1cnc2ccccc2c1)CCCN1CC=C(c2ccccc2)CC1 [Example 6, 3-[5-(3,6-Dihydro-4-phenyl-1(2H)-pyridinyl)-1-pentynyl]quinoline] | – | – | 3.6 mg/kg | –
6 | C(#Cc1cccnc1)CCCN1CC=C(c2ccccc2)CC1 [Example 7, 3-[5-(3,6-Dihydro-4-phenyl-1(2H)-pyridinyl)-1-pentynyl]pyridine] | 48% | 77.2 nM | 0.72 mg/kg | –
7 | C(#Cc1cccnc1)CCCN1CC=C(c2cccs2)CC1 [Example 8, 3-[5-[3,6-Dihydro-4-(2-thienyl)-1(2H)-pyridinyl]-1-pentynyl]pyridine] | – | 209 nM | 2.7 mg/kg | –
8 | O=[N+]([O-])c1ccc(C#CCCN2CC=C(c3ccccc3)CC2)nc1 [Example 9, 1,2,3,6-Tetrahydro-1-[4-(5-nitro-2-pyridinyl)-3-butynyl]-4-phenylpyridine] | – | 229 nM | 6.9 mg/kg | –
9 | O=[N+]([O-])c1ccc(C#CCCN2CC=C(c3ccccc3)CC2)cc1 [Example 10, 1,2,3,6-Tetrahydro-1-[4-(4-nitrophenyl)-3-butynyl]-4-phenylpyridine] | 42% | 394 nM | 2.6 mg/kg | –
10 | C(#Cc1ccncc1)CCN1CC=C(c2ccccc2)CC1 [Example 11, 4-[4-(3,6-Dihydro-4-phenyl-1(2H)-pyridinyl)-1-butynyl]pyridine] | 79% | 43.4 nM | 0.1 mg/kg | –
11 | Nc1ccc(C#CCCN2CC=C(c3cccs3)CC2)nc1 [Example 12, 6-[4-[3,6-Dihydro-4-(2-thienyl)-1(2H)-pyridinyl]-1-butynyl]-3-pyridinamine] | 46% | 321 nM | 0.36 mg/kg | –
12 | CN(C)c1ccc(C#CCCN2CC=C(c3ccccc3)CC2)nc1 [Example 13, 6-[4-(3,6-Dihydro-4-phenyl-1(2H)-pyridinyl)-1-butynyl]-N,N-dimethyl-3-pyridinamine] | 49% | 192 nM | 0.28 mg/kg | –
13 | C(#Cc1ccccn1)CCN1CC=C(c2ccccc2)CC1 [Example 14, 1,2,3,6-Tetrahydro-4-phenyl-1-[4-(2-pyridinyl)-3-butynyl]pyridine] | 23% | 189 nM | 2.1 mg/kg | –
14 | C(#Cc1ccc2[nH]ccc2c1)CCN1CC=C(c2ccccc2)CC1 [Example 15, 5-[4-(3,6-Dihydro-4-phenyl-1(2H)-pyridinyl)-1-butynyl]-1H-indole] | – | 78 nM | 1 mg/kg | –
15 | C(#Cc1cccs1)CCN1CC=C(c2ccccc2)CC1 [Example 16, 1,2,3,6-Tetrahydro-4-phenyl-1-[4-(2-thienyl)-3-butynyl]pyridine] | – | 115 nM | 7.6 mg/kg | –
16 | Nc1ccc(C#CCCN2CC=C(c3ccc(F)cc3)CC2)cn1 [Example 17, 5-[4-[4-(4-Fluorophenyl)-3,6-dihydro-1(2H)-pyridinyl]-1-butynyl]-2-pyridinamine] | 40% | 376 nM | 1.2 mg/kg | –
17 | Nc1ccc(C#CCCN2CC=C(c3ccccc3)CC2)nc1 [Example 19, 6-[4-(3,6-Dihydro-4-phenyl-1(2H)-pyridinyl)-1-butynyl]-3-pyridinamine] | 59% | 85 nM | 0.15 mg/kg | –
18 | Nc1ccc(C#CCCN2CC=C(c3ccccc3)CC2)cc1 [Example 20, 4-[4-(3,6-Dihydro-4-phenyl-1(2H)-pyridinyl)-1-butynyl]benzenamine] | 51% | 431 nM | 0.36 mg/kg | –
19 | Nc1ccc(C#CCCN2CC=C(c3ccccc3)CC2)cn1 [Example 21, 5-[4-(3,6-Dihydro-4-phenyl-1(2H)-pyridinyl)-1-butynyl]-2-pyridinamine] | 65% | 25 nM | 0.07 mg/kg | –
20 | CC(=O)Nc1ccc(C#CCCN2CC=C(c3ccccc3)CC2)nc1 [Example 22, N-[6-[4-(3,6-Dihydro-4-phenyl-1(2H)-pyridinyl)-1-butynyl]-3-pyridinyl]acetamide] | 5% | 70 nM | 0.07 mg/kg | –
21 | O=C(Nc1ccc(C#CCCN2CC=C(c3ccccc3)CC2)nc1)c1cccs1 [Example 23, N-[6-[4-(3,6-Dihydro-4-phenyl-1(2H)-pyridinyl)-1-butynyl]-3-pyridinyl]-2-thiophenecarboxamide] | 0% | 1090 nM | 1.5 mg/kg | –
22 | CC(=O)Nc1ccc(C#CCCN2CC=C(c3ccccc3)CC2)cc1 [Example 24, N-[4-[4-(3,6-Dihydro-4-phenyl-1(2H)-pyridinyl)-1-butynyl]phenyl]acetamide] | – | 50 nM | 0.23 mg/kg | –
23 | CC(=O)Nc1ccc(C#CCCN2CC=C(c3ccccc3)CC2)cn1 [Example 25, N-[5-[4-(3,6-Dihydro-4-phenyl-1(2H)-pyridinyl)-1-butynyl]-2-pyridinyl]acetamide] | – | – | 0.16 mg/kg | –
24 | CNc1ccc(C#CCCN2CC=C(c3ccccc3)CC2)nc1 [Example 26, 6-[4-(3,6-Dihydro-4-phenyl-1(2H)-pyridinyl)-1-butynyl]-N-methyl-3-pyridinamine] | 0% | 138 nM | 0.22 mg/kg | –
25 | CNc1ccc(C#CCCN2CC=C(c3ccccc3)CC2)cc1 [Example 27, 4-[4-(3,6-Dihydro-4-phenyl-1(2H)-pyridinyl)-1-butynyl]-N-methylbenzenamine] | 45% | 129 nM | 0.56 mg/kg | –
26 | CNc1ccc(C#CCCN2CC=C(c3ccc(F)cc3)CC2)cn1 [Example 28, 5-[4-[4-(9-Fluorophenyl)-3,6-dihydro-1(2H)-pyridinyl]-1-butynyl]-N-methyl-2-pyridinamine] | 57% | – | 0.6 mg/kg | 1270 nM
27 | CNc1ccc(C#CCCN2CC=C(c3ccccc3)CC2)cn1 [Example 29, 5-[4-(3,6-Dihydro-4-phenyl-1(2H)-pyridinyl)-1-butynyl]-N-methyl-2-pyridinamine] | 42% | 77 nM | 6.1 mg/kg | –
28 | CCCNc1ccc(C#CCCN2CC=C(c3ccccc3)CC2)nc1 [Example 30, 6-[4-(3,6-Dihydro-4-phenyl-1(2H)-pyridinyl)-1-butynyl]-N-propyl-3-pyridinamine] | – | 248 nM | 0.31 mg/kg | –
29 | CS(=O)(=O)N(c1ccc(C#CCCN2CC=C(c3ccccc3)CC2)nc1)S(C)(=O)=O [Example 31, N-(Methylsulfonyl)-N-[6-[4-(3,6-dihydro-4-phenyl-1(2H)-pyridinyl)-1-butynyl]-3-pyridinyl]methanesulfonamide] | 0% | 94 nM | 0.53 mg/kg | –
30 | CS(=O)(=O)Nc1ccc(C#CCCN2CC=C(c3ccccc3)CC2)nc1 [Example 32, N-[6-[4-(3,6-Dihydro-4-phenyl-1(2H)-pyridinyl)-1-butynyl]-3-pyridinyl]methanesulfonamide] | – | 64 nM | 1.1 mg/kg | –
